1 molecule from EPA's ToxValDB 9.5 (doi:10.2903/j.efsa.2016.4420) can be followed below.

As a reminder, the NOAEL is the highest tested level that showed no adverse finding. For orientation: LC50 means the concentration that kills 50% of the test population.

In one data set the test system is Danio rerio. The settings on record: chronic.
In the next data set the test system is Pimephales promelas. The settings on record: chronic/long-term; reproduction.
The subject of the next data set is Tagia sp. The conditions noted are these: chronic/long-term; growth.
The subject of the next data set is Folsomia candida. The conditions noted are these: chronic/long-term; mortality.
The subject of the next data set is Bibionidae. The settings on record: chronic/long-term.
The test system of another data set is Oryctolagus sp. The conditions noted are these: developmental; development.
The test system of the next data set is Daphnia magna. The settings on record: chronic/long-term; duration: 21 days; reproduction.
The test system of another data set is Apis mellifera. The settings on record: acute, mortality.
The test system of the next data set is Canidae. The conditions noted are these: chronic; duration: 2 years; Dog Other; histopathology: nonneoplastic.
For data set [1] the following is noted: chronic; duration: 128 days; other.
The next data set concerns Oncorhynchus mykiss. The settings on record: acute; duration: 96 hours; mortality.
A further data set concerns Aphidius rhopalosiphi. Kind of data set: LR50; higher = less toxic. The settings on record: not reported; mortality.

In brackets after ≈: the same amount, converted by molar mass.

Regarding `CCC(CC)Nc1c([N+](=O)[O-])cc(C)c(C)c1[N+](=O)[O-]` [Pendimethalin], the NOEC in the data set on Danio rerio is 0.032 mg/L; in the data set on Pimephales promelas it was 0.0063 mg/L; with Tagia sp., 33.5 mg/kg; in the data set with Folsomia candida it was 193 mg/kg; in the data set with Bibionidae (duration: 28 days), 227 mg/kg; in the data set on Bibionidae (duration: 30 days), 0.082 mg/L. Besides, the NOEC in the data set with Daphnia magna was found to be 0.0145 mg/L; in data set [1], 0.00023 mg/L. For the same molecule, the LD50 with Anas platyrhynchos (acute, oral, unspecified, mortality) was 1420 mg/kg-day; in the data set on Apis mellifera (dermal), more than 100 µg/piece; in the data set on Apis mellifera (oral, unspecified) it was more than 101 µg/piece; with Rattus norvegicus (acute, mortality), 3930 mg/kg-day. The NOEL in the data set with Anas platyrhynchos (reproductive) stood at 17.5 mg/kg-day. Moreover, the NOAEL in the data set on Oryctolagus sp. came out at 30 mg/kg-day; in the data set with Canidae, 12.5 mg/kg-day; with Rattus norvegicus (reproduction developmental, body weight) it was 30 mg/kg-day. Also, the LC50 with Oncorhynchus mykiss is 0.196 mg/L (≈ 0.697 µM). The LR50 with Aphidius rhopalosiphi was found to be 1200 g/ha.
